ChEMBL document CHEMBL4819123, “Pulchinenosides: Correlation of surface activity-cytotoxicity and hepatocyte apoptosis mechanism study” (Bioorg Med Chem Lett, 2021)

Experiments:
L02 [1] = assay: Induction of cell cycle arrest in human L02 cells assessed as G0/G1 phase accumulation at 6 uM by PI staining based flow cytometry analysis (reference value: 53.77 %); conditions: l02, 6 µM
L02 [2] = assay: Induction of apoptosis in human L02 cells assessed as late apoptotic cells at 10 uM by annexin-V-FITC/PI staining based flow cytometry analysis (reference value: 0.92 %); format: cell-based; conditions: l02, 10 µM
L02 [3] = assay: Induction of cell cycle arrest in human L02 cells assessed as S phase accumulation at 6 uM by PI staining based flow cytometry analysis (reference value: 38.23 %); conditions: l02, 6 µM
L02 [4] = assay: Induction of apoptosis in human L02 cells assessed as early apoptotic cells at 6 uM by annexin-V-FITC/PI staining based flow cytometry analysis (reference value: 3.81 %); format: cell-based; conditions: l02, 6 µM
[5] = Oil-water partition coefficient, logP of compound; format: physicochemical
L02 [6] = assay: Induction of apoptosis in human L02 cells assessed as late apoptotic cells at 6 uM by annexin-V-FITC/PI staining based flow cytometry analysis (reference value: 0.92 %); format: cell-based; conditions: l02, 6 µM
L02 [7] = assay: Induction of cell cycle arrest in human L02 cells assessed as S phase accumulation at 10 uM by PI staining based flow cytometry analysis (reference value: 38.23 %); conditions: l02, 10 µM
L02 [8] = assay: Induction of apoptosis in human L02 cells assessed as late apoptotic cells at 8 uM by annexin-V-FITC/PI staining based flow cytometry analysis (reference value: 0.92 %); format: cell-based; conditions: l02, 8 µM
L02 [9] = assay: Induction of apoptosis in human L02 cells assessed as early apoptotic cells at 10 uM by annexin-V-FITC/PI staining based flow cytometry analysis (reference value: 3.81 %); format: cell-based; conditions: l02, 10 µM
L02 [10] = assay: Cytotoxicity against human L02 cells by MTT assay; format: cell-based
L02 [11] = assay: Induction of cell cycle arrest in human L02 cells assessed as G0/G1 phase accumulation at 10 uM by PI staining based flow cytometry analysis (reference value: 53.77 %); conditions: l02, 10 µM
[12] = Hemolytic activity in rabbit erythrocytes; format: ADME, cell-based, Oryctolagus cuniculus, Erythrocyte; conditions: read-out: HD50 (the source's name)
L02 [13] = assay: Induction of cell cycle arrest in human L02 cells assessed as G2/M phase accumulation at 10 uM by PI staining based flow cytometry analysis (reference value: 8 %); conditions: l02, 10 µM
L02 [14] = assay: Induction of cell cycle arrest in human L02 cells assessed as G2/M phase accumulation at 6 uM by PI staining based flow cytometry analysis (reference value: 8 %); conditions: l02, 6 µM
L02 [15] = assay: Induction of cell cycle arrest in human L02 cells assessed as S phase accumulation at 8 uM by PI staining based flow cytometry analysis (reference value: 38.23 %); conditions: l02, 8 µM
L02 [16] = assay: Induction of cell cycle arrest in human L02 cells assessed as G2/M phase accumulation at 8 uM by PI staining based flow cytometry analysis (reference value: 8 %); conditions: l02, 8 µM
L02 [17] = assay: Cytotoxicity against human L02 cells assessed as increase in LDH leakage by LDH assay; format: cell-based
L02 [18] = assay: Induction of apoptosis in human L02 cells assessed as early apoptotic cells at 8 uM by annexin-V-FITC/PI staining based flow cytometry analysis (reference value: 3.81 %); format: cell-based; conditions: l02, 8 µM
L02 [19] = assay: Induction of cell cycle arrest in human L02 cells assessed as G0/G1 phase accumulation at 8 uM by PI staining based flow cytometry analysis (reference value: 53.77 %); conditions: l02, 8 µM
L02 [20] = assay: Induction of apoptosis in human L02 cells assessed as increase in cleaved caspase 8 level at 8 to 12 ug/ml measured after 24 hrs by Western blot analysis; format: cell-based; conditions: l02, 24 h, dose 8-12 µg/ml
L02 [21] = assay: Induction of apoptosis in human L02 cells assessed as upregulation of FAS expression at 8 to 12 ug/ml measured after 24 hrs by Western blot analysis; format: cell-based; conditions: l02, 24 h, dose 8-12 µg/ml
L02 [22] = assay: Induction of apoptosis in human L02 cells assessed as decrease in caspase 8 level at 8 to 12 ug/ml measured after 24 hrs by Western blot analysis; format: cell-based; conditions: l02, 24 h, dose 8-12 µg/ml
L02 [23] = assay: Induction of apoptosis in human L02 cells assessed as decrease in ratio of Bcl-2/Bax at 8 to 12 ug/ml measured after 24 hrs by Western blot analysis; format: cell-based; conditions: l02, 24 h, dose 8-12 µg/ml
L02 [24] = assay: Induction of apoptosis in human L02 cells assessed as decrease in caspase 9 level at 8 to 12 ug/ml measured after 24 hrs by Western blot analysis; format: cell-based; conditions: l02, 24 h, dose 8-12 µg/ml
L02 [25] = assay: Induction of cell cycle arrest in human L02 cells assessed as G2/M phase accumulation at 24 uM by PI staining based flow cytometry analysis (reference value: 8 %); conditions: l02, 24 µM
L02 [26] = assay: Induction of apoptosis in human L02 cells assessed as early apoptotic cells at 26 uM by annexin-V-FITC/PI staining based flow cytometry analysis (reference value: 3.81 %); format: cell-based; conditions: l02, 26 µM
L02 [27] = assay: Induction of cell cycle arrest in human L02 cells assessed as G0/G1 phase accumulation at 18 uM by PI staining based flow cytometry analysis (reference value: 53.77 %); conditions: l02, 18 µM
L02 [28] = assay: Induction of apoptosis in human L02 cells assessed as early apoptotic cells at 18 uM by annexin-V-FITC/PI staining based flow cytometry analysis (reference value: 3.81 %); format: cell-based; conditions: l02, 18 µM
L02 [29] = assay: Induction of apoptosis in human L02 cells assessed as late apoptotic cells at 26 uM by annexin-V-FITC/PI staining based flow cytometry analysis (reference value: 0.92 %); format: cell-based; conditions: l02, 26 µM
L02 [30] = assay: Induction of cell cycle arrest in human L02 cells assessed as G2/M phase accumulation at 26 uM by PI staining based flow cytometry analysis (reference value: 8 %); conditions: l02, 26 µM
L02 [31] = assay: Induction of apoptosis in human L02 cells assessed as late apoptotic cells at 24 uM by annexin-V-FITC/PI staining based flow cytometry analysis (reference value: 0.92 %); format: cell-based; conditions: l02, 24 µM
L02 [32] = assay: Induction of cell cycle arrest in human L02 cells assessed as S phase accumulation at 18 uM by PI staining based flow cytometry analysis (reference value: 38.23 %); conditions: l02, 18 µM
L02 [33] = assay: Induction of cell cycle arrest in human L02 cells assessed as G0/G1 phase accumulation at 24 uM by PI staining based flow cytometry analysis (reference value: 53.77 %); conditions: l02, 24 µM
L02 [34] = assay: Induction of cell cycle arrest in human L02 cells assessed as S phase accumulation at 26 uM by PI staining based flow cytometry analysis (reference value: 38.23 %); conditions: l02, 26 µM
L02 [35] = assay: Induction of cell cycle arrest in human L02 cells assessed as G2/M phase accumulation at 18 uM by PI staining based flow cytometry analysis (reference value: 8 %); conditions: l02, 18 µM
L02 [36] = assay: Induction of cell cycle arrest in human L02 cells assessed as G0/G1 phase accumulation at 26 uM by PI staining based flow cytometry analysis (reference value: 53.77 %); conditions: l02, 26 µM
L02 [37] = assay: Induction of apoptosis in human L02 cells assessed as early apoptotic cells at 24 uM by annexin-V-FITC/PI staining based flow cytometry analysis (reference value: 3.81 %); format: cell-based; conditions: l02, 24 µM
L02 [38] = assay: Induction of cell cycle arrest in human L02 cells assessed as S phase accumulation at 24 uM by PI staining based flow cytometry analysis (reference value: 38.23 %); conditions: l02, 24 µM
L02 [39] = assay: Induction of apoptosis in human L02 cells assessed as late apoptotic cells at 18 uM by annexin-V-FITC/PI staining based flow cytometry analysis (reference value: 0.92 %); format: cell-based; conditions: l02, 18 µM

Activity (L02 [1]) | Activity (L02 [3]) | logP [5] | Activity (L02 [7]) | Activity (L02 [11]) | Activity (L02 [13]) | Activity (L02 [14]) | Activity (L02 [15]) | Activity (L02 [16]) | Activity (L02 [19]) | SMILES | Activity (L02 [2]) | Activity (L02 [4]) | Activity (L02 [6]) | Activity (L02 [8]) | Activity (L02 [9]) | IC50 (L02 [10]) | HC50 [12] | Activity (L02 [17]) | Activity (L02 [18]) | further results
58.57% | 33.43% | 0.318 | 47.32% | 50.68% | 2% | 8% | 38.34% | 4.8% | 56.86% | C[C@@H]1O[C@@H](O[C@H]2[C@H](O[C@H]3CC[C@]4(C)[C@H]5CC=C6[C@@H]7CC(C)(C)CC[C@]7(C(=O)O)CC[C@@]6(C)[C@]5(C)CC[C@H]4C3(C)C)OC[C@H](O)[C@@H]2O[C@@H]2O[C@H](CO)[C@@H](O)[C@H](O)[C@H]2O)[C@H](O)[C@H](O)[C@H]1O | 89.3% | 6.87% | 2.91% | 27.9% | 2.79% | 7.49 µM | 3.6 µM | Toxic | 13.4% | –
57.44% | 34.56% | -0.0114 | 32.14% | 67.43% | 0.45% | 8% | 35.95% | 3.8% | 60.25% | C[C@H]1O[C@@H](O[C@@H]2[C@@H](O)[C@@H](CO)O[C@H](O[C@@H]3[C@H](O)[C@@H](O)[C@H](O[C@H]4CC[C@]5(C)[C@H]6CC=C7[C@@H]8CC(C)(C)CC[C@]8(C(=O)O)CC[C@@]7(C)[C@]6(C)CC[C@H]5C4(C)C)O[C@@H]3CO)[C@@H]2O)[C@H](O[C@@H]2OC[C@@H](O)[C@@H](O)[C@@H]2O)[C@@H](O)[C@@H]1O | 92.2% | 7.62% | 7.91% | 54.1% | 1.92% | 9.57 µM | 2.49 µM | Toxic | 23.4% | Activity (L02 [20]): Toxic; Activity (L02 [21]): Toxic; Activity (L02 [22]): Toxic; Activity (L02 [23]): Toxic; Activity (L02 [24]): Toxic
– | – | 0.244 | – | – | – | – | – | – | – | C[C@@H]1O[C@@H](O[C@H]2[C@H](O[C@H]3CC[C@]4(C)[C@H]5CC=C6[C@@H]7CC(C)(C)CC[C@]7(C(=O)O)CC[C@@]6(C)[C@]5(C)CC[C@H]4C3(C)C)OC[C@H](O)[C@@H]2O)[C@H](O)[C@H](O)[C@H]1O | – | – | – | – | – | 23.1 µM | 7.46 µM | Toxic | – | Activity (L02 [25]): 1.72%; Activity (L02 [26]): 54.9%; Activity (L02 [27]): 69.09%; Activity (L02 [28]): 8.4%; Activity (L02 [29]): 8.41%; Activity (L02 [30]): 4.73%; Activity (L02 [31]): 6.93%; Activity (L02 [32]): 30.6%; Activity (L02 [33]): 64%; Activity (L02 [34]): 44.08%; Activity (L02 [35]): 0.31%; Activity (L02 [36]): 51.19%; Activity (L02 [37]): 12.1%; Activity (L02 [38]): 36.28%; Activity (L02 [39]): 3.82%
